# Several values for one entry are separate records, joined by “and”; a condition that tells them apart may be missing. Equal entries are not always repeated.
# Legend:
# galanin receptor = test: Galanin Agonism/Antagonism, rat ileum; type: cell-based; conditions: Peptide 30 μM
# Procedure: For in vivo assay, distilled water and saline was used as vehicle in oral and intraperitoneal administration, respectively. Dosing volume was 20 ml/kg for mice or 10 ml/kg for rats.
# A segment of ileum obtained from Wistar derived male or female rats weighing 275±25 gms and sacrificed by CO2 overexposure was used. The tissue was placed under 1 g tension in a 10 ml bath containing Kreb's solution pH 7.4 at 32° C. Test substance (30 μM)-induced contraction 50 percent or more (≧50%) within 5 minutes, relative to control 0.1 μM galanin response, indicated possible galanin receptor agonist activity. Atha test substance concentration where no significant agonist activity was seen, ability to reduce the galanin-induced contractile response […] or more (≧50%) indicated galanin receptor antagonist activity. Each concentration was tested on two separate preparations.
# 5-Lipoxygenase = target: T1, 5-Lipoxygenase (Rattus norvegicus, UniProt P12527); test: 5-Lipoxygenase enzyme assay; type: biochemical; conditions: 30.0 μM; average of duplicate; negative = stimulation
# T1 construct: rat RBL-1 cells; endogenous in cells; host or cells: RBL-1 cells
# Procedure: Unless otherwise indicated, the peptide was tested in duplicate at the concentrations indicated for each assay.
# Enzyme assays were performed under conditions described in Table 8, “Experimental Conditions.”.
# Interleukin-6 = target: T2, Interleukin-6 (Homo sapiens, UniProt P08887); test: Interleukin-6 radioligand binding; conditions: 10.0 μM; specific binding of [125I]Interleukin-6; negative = stimulation
# T2 construct: human U266; endogenous in cells; host or cells: U266 cells
# Procedure: (§1) The peptide was further screened in vitro in a variety of enzyme and biochemical assays. Methods employed were adapted from the scientific literature to maximize reliability and reproducibility. The primary literature reference for each assay is listed in Table 11 opposite the results for each assay.
# (§2) Results presented in Table 10, “Results,” are the average of duplicate determinations, unless otherwise noted.
# Reference compounds were tested concurrently at 5 concentrations as an integral part of each assay to ensure the validity of the results obtained. […]
# (§3) Maximum total binding and nonspecific binding were determined each time each assay was run. […]
# (§4) Where inhibition constants (Ki) are presented, the Ki values were calculated using the equation of Cheng and Prusoff (Cheng, Y., Prusoff, W. H., Biochem. Pharmacol. […], 1973) using the observed IC50 of the tested compound, the concentration of radioligand employed in the assay, and the historical values for the Kd of the ligand (obtained experimentally). Where presented, the Hill Coefficient (nH), defining the scope of the competitive binding curve, was calculated using GraphPad Prism. […] Where IC50, Ki, and/or Hill Slope data is presented without Standard Error of the Mean (SEM), data are insufficient to be quantitative, and the values presented (Ki, IC50, nH) should be interpreted with caution. […]
# histamine H3 receptor = target: T3, histamine H3 receptor (Cavia porcellus, UniProt Q9JI35); test: Histamine H3 Agonism/Antagonism, guinea pig ileum; type: cell-based; conditions: Peptide 30 μM, Thioperamide 0.3 μM
# T3 construct: ileum obtained from Duncan Hartley derived male or female guinea pigs; from tissue; host or cells: guinea pig ileum segment, field-stimulated
# Procedure: A segment of ileum obtained from Duncan Hartley derived male or female guinea pigs weighing 325±25 gms and sacrificed by CO2 overexposure were used. The tissue was placed under 0.5 g tension in a 10 ml bath containing Kreb's solution pH 7.4 and pyrilamine (0.3 μM) at 32° C. and subjected to field stimulation (70% of maximum voltage, 0.1 Hz, 0.5 millisecond). Test substance (30 μM)-induced reduction of isometrically recorded contractions 50 percent or more (≧50%) within 5 minutes, relative to control 0.3 μM R-α-methylhistamine response, indicated possible histamine H3 receptor agonist activity. At a test substance concentration where no significant agonist activity was seen, ability to inhibit R-α-methylhistamine-induced response by 50 percent or more (≧50%) indicated histamine H3 receptor antagonist activity. Each concentration was tested on two separate preparations.
# [1] = test system: vasculature of chick embryos; test: CAM assay; type: in vivo
# Procedure: Method: The method used was that described in D. Knighton, D. Ausprunk, D. Tapper, and J. Folkman, “Avascular and Vascular Phases of Tumour Growth in the Chick Embryo.” J. Cancer 35:347-355 (1977) Procedure: The test compounds were suspended in sterile saline and then applied to methylcellulose discs, ¼ inch diameter with a micropipette and allowed to air dry at a concentration of 10 μg/disc.
# The test was graded as follows:
# The following scores are based on the observation of at least 10 chick embryos.
# Histamine H3 = target: T4, Histamine H3 (Rattus norvegicus, UniProt Q9QYN8); test: Histamine H3 radioligand binding; conditions: 10.0 μM; specific binding of [3H]NAMH; negative = stimulation
# T4 construct: rat brain; from tissue; host or cells: rat brain
# Procedure: as §1, §2
# Reference compounds were tested concurrently at 5 concentrations as an integral part of each assay to ensure the validity of the results obtained.
# Radioligand binding assays were performed under conditions described in Table 8, “Experimental Conditions.” Radioligands employed in this study are given in Table 8, and commercial sources and catalog numbers of the radioligands are provided in Table 7, “Material Sources.” Unlabeled, blocking ligands employed this study are listed in Table 8, “Experimenal Conditions,” along with the commercial sources and catalog number of the unlabeled ligand. The concurrent reference compound (control) employed in each assay is listed in Table 9, “Reference Compound Data,” along with the commercial supplier and catalog number of the compound. […]
# as §3, §4
# Sarcoma 180 tumor = test: Anti-Cancer Activity Against Mouse Tumor Sarcoma 180; type: in vivo; conditions: 10 mg/kg, listed as natural peptide
# Procedure: This model has been used extensively as indicative of neovascularization in mammals inasmuch as the tumor so implanted is quickly vascularizing.
# Experimental Design: All mice were weighed at test initiation and test termination. The animals were divided into three groups. The Sarcoma 180 tumor was made up from a passage mouse to furnish […] per 0.1 mL inoculum. The cells were injected into the left leg hamstring muscle mass. The was delivered to the mice by I.P. injections, or gavage on days 1-5.
# At the termination of the experiments, the mice were weighed and the left rear leg was amputated at the thigh. The skin was removed from the leg to expose the site at which the tumor was located. […].
# [2] = target: Ca++ Ch.-L, Dihydropyridine (Rattus norvegicus, UniProt P22002); test: Ca++ Ch.-L, Dihydropyridine radioligand binding; conditions: 10.0 μM; specific binding of [3H]Nitrendipine; negative = stimulation
# Procedure: The peptide was further screened in vitro in a variety of enzyme and biochemical assays. Methods employed were adapted from the scientific literature to maximize reliability and reproducibility.
# as §2
# Radioligand binding assays were performed under conditions described in Table 8, “Experimental Conditions.” Radioligands employed in this study are given in Table 8, and commercial sources and catalog numbers of the radioligands are provided in Table 7, “Material Sources.” Unlabeled, blocking ligands employed this study are listed in Table 8, “Experimenal Conditions,” along with the commercial sources and catalog number of the unlabeled ligand. The concurrent reference compound (control) employed in each assay is listed in Table 9, “Reference Compound Data,” along with the commercial supplier and catalog number of the compound. Where receptors have been obtained through recombinant expression techniques, the species from which the cDNA was obtained, and the type of expression system employed (mammalian, insect, bacterial) is also given Table 7.
# Maximum total binding and nonspecific binding were determined each time each assay was run. Nonspecific binding was defined as the proportion of total binding not displaced by unlabeled ligand specific for the receptor. […]
# T3 sequence (Q9JI35 whole entry): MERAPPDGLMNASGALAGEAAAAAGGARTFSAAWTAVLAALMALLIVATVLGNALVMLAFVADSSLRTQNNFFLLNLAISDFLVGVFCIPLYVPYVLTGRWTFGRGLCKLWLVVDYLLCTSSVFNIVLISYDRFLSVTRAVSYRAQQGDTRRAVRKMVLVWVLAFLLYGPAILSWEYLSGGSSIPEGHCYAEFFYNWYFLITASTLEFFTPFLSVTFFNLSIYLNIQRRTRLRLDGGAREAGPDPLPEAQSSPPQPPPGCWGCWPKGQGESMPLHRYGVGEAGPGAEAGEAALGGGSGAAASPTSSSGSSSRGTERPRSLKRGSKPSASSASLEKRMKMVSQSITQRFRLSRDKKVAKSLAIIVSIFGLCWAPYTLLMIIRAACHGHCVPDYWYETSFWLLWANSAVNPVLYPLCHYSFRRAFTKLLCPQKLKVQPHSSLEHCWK
# Sequence of Ca++ Ch.-L, Dihydropyridine (P22002 whole entry): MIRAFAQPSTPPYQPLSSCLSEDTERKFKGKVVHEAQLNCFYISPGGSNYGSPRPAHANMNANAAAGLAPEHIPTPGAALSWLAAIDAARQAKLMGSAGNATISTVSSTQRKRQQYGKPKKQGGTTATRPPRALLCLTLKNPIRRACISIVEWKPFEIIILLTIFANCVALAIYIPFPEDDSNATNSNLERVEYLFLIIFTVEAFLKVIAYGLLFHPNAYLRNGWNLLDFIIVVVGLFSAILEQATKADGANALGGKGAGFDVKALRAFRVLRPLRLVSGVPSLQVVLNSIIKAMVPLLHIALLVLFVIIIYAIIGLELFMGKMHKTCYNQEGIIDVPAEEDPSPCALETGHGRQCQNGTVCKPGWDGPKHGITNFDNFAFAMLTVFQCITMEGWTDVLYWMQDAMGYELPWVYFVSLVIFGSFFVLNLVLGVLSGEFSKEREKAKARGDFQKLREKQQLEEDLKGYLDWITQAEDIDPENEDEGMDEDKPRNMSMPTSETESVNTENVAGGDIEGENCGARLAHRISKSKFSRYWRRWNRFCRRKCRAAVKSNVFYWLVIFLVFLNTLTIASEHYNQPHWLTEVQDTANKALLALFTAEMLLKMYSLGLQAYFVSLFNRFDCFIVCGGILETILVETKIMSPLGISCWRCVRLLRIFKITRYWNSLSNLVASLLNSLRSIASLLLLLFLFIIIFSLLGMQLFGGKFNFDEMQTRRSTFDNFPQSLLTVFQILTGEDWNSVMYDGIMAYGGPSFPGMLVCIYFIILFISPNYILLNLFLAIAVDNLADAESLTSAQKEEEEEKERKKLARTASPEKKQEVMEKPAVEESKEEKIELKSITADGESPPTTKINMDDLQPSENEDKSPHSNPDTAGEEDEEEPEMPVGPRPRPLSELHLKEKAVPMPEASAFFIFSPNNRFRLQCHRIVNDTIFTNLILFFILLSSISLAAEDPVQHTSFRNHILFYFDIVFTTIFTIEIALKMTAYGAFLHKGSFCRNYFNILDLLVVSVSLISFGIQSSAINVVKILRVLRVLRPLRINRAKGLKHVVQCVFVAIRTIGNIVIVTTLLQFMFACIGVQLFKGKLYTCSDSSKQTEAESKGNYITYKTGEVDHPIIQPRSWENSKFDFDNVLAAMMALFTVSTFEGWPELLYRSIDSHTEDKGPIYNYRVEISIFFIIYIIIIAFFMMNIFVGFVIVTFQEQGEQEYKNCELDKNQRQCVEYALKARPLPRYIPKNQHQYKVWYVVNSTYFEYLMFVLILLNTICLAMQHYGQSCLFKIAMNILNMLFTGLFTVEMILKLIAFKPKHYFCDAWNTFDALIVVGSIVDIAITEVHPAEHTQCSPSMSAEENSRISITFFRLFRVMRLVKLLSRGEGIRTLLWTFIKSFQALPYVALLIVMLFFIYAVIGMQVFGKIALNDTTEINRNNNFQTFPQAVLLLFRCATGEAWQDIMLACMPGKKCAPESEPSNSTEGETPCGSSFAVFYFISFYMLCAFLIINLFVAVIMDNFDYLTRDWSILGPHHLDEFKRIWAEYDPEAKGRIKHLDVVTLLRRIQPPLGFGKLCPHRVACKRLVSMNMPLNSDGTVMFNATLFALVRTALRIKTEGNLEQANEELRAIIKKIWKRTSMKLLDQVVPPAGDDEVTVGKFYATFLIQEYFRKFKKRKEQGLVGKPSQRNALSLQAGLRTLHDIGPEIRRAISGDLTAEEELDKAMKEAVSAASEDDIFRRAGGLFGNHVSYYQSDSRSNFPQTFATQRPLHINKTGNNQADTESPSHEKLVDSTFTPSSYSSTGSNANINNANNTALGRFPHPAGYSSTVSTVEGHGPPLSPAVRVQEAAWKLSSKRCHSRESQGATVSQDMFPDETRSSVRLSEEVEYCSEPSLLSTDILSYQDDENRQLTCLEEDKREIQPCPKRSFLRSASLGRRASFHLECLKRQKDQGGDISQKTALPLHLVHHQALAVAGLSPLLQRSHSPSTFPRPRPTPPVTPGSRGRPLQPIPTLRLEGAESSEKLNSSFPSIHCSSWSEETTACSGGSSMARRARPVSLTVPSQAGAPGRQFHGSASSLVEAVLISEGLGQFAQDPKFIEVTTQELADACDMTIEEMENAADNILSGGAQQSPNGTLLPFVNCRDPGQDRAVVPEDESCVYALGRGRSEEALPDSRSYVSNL
# T2 sequence (P08887 20-468): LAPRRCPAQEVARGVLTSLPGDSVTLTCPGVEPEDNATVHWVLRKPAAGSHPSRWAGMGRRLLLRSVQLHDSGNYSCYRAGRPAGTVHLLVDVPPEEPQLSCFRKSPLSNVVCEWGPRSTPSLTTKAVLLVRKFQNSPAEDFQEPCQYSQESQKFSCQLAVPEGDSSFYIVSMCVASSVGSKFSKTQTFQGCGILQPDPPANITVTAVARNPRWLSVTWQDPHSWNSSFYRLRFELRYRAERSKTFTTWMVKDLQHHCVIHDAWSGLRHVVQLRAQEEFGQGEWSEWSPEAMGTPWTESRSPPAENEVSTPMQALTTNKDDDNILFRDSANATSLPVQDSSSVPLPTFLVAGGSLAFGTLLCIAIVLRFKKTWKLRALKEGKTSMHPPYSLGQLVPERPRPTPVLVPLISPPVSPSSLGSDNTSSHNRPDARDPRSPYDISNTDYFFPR
# T1 sequence (P12527 whole entry): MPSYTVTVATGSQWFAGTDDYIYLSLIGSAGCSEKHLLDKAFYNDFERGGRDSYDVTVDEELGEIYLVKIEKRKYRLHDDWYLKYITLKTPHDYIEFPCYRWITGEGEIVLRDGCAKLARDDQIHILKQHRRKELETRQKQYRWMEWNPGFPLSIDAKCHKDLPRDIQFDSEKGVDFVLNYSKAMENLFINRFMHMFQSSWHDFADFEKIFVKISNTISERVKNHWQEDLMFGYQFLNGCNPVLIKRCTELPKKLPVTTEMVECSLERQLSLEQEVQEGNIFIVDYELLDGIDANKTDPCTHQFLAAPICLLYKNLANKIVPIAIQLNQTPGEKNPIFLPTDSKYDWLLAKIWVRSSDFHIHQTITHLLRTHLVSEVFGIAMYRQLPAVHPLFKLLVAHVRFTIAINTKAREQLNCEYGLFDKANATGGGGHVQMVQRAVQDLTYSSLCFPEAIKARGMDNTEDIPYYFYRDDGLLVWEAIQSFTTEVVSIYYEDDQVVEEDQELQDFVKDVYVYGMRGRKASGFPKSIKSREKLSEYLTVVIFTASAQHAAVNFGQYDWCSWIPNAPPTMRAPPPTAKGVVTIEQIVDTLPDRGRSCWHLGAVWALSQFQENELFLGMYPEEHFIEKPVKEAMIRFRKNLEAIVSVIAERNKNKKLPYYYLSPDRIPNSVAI
# T4 sequence (Q9QYN8 whole entry): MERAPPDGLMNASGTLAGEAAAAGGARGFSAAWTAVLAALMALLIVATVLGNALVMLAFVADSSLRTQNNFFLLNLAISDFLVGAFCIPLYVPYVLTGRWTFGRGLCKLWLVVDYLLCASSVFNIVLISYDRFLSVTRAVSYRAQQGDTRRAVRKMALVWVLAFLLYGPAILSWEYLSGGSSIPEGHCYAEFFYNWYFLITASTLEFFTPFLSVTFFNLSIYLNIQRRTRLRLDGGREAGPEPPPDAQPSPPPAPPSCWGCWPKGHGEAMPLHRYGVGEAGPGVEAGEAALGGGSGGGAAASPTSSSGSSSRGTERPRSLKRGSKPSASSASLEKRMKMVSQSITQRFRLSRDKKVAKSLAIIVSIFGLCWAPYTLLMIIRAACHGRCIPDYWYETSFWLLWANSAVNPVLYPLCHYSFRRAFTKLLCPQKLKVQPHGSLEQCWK
substance,measurement,setting,value
LEU-PRO-PRO-SER-ARG [Peptide],"Antagonism, Ave.",galanin receptor; average of two preparations,12%
same,"Agonism, Ave.","galanin receptor; average of two preparations, Galanin 0.1 μM",0%
same,Agonism,"galanin receptor; individual preparation, contraction within 5 minutes relative to 0.1 μM galanin response, Galanin 0.1 μM",0%
same,Antagonism,"galanin receptor; individual preparation, reduction of 0.1 μM galanin-induced contractile response",24% and 0%
same,% Inhibition,5-Lipoxygenase,0%
same,% Inhibition,Interleukin-6,13%
same,"Agonism, Ave.","histamine H3 receptor; average of two preparations, R(α)-Methylhistamine 0.3 μM",4%
same,"Antagonism, Ave.",histamine H3 receptor; average of two preparations,4%
same,Antagonism,"histamine H3 receptor; individual preparation, reduction of 0.3 μM R(α)-methylhistamine-induced relaxation",7% and 0%
same,Agonism,"histamine H3 receptor; individual preparation, relaxation within 5 minutes relative to 0.3 μM R-α-methylhistamine, R(α)-Methylhistamine 0.3 μM (0.1 printed in r13)",0% and 4%
same,CAM assay antiangiogenesis score,"[1]; 10 μg/disc on methylcellulose discs, at least 10 chick embryos, graded 0 to +4",3.6
same,inhibited proliferation of vacularization,"[1]; CAM assay, 10 μg/disc",approximately 95%
same,% Inhibition,Histamine H3,−13%
same,% tumor inhibition,"Sarcoma 180 tumor; I.P. injections or gavage on days 1-5, 6 mice",99.0%
same,"Mean tumor wt. gain, gm","Sarcoma 180 tumor; net tumor weight, I.P. injections or gavage on days 1-5, 6 mice",0.03 gm
same,% Inhibition,[2],2%

# From patent publication US6767890B1, “Peptides having anti-cancer and anti-inflammatory activity” (priority 1998, dated 2004)
